From ChEMBL document CHEMBL5360545, “Multitargeted drug design strategy for discovery of short-peptide-based HIV-1 entry inhibitors with high potency” (Eur J Med Chem, 2023)
Active and inactive are the calls of the source. The calls are words filed in the database; no cut-off is given here. Side chains are listed from the residue outwards. Peptide text beside a SMILES is read from it. * marks the point of attachment. X2 = CC(=O)N1CCC(C(=O)N(CCCN2C3CCC2CC(NS(=O)(=O)c2ccc(C(=O)*)cc2)C3)c2ccc(C)c(Cl)c2)CC1; X1 = CC(=O)N1CCC(C(=O)N(CCCN2CCC(Cc3ccc(C(=O)*)cc3)CC2)c2ccc(C)c(Cl)c2)CC1; PEG12 = NCCOCCOCCOCCOCCOCCOCCOCCOCCOCCOCCOCCOCCC(=O)O

Columns and labels:
[1] = test system: Human immunodeficiency virus 1; test: Antiviral activity against HIV-1 Bal-R5 infected in human CEMx174 5.25M7 cells assessed as reduction in p24 antigen level measured after 4 days by ELISA; assay type: functional, organism-based; settings: Human immunodeficiency virus 1, Bal-R5, CEMx174 5.25M7, 96 h
[2] = test system: Human immunodeficiency virus 1; test: Antiviral activity against HIV-1 clinical isolate R5-91US-4 infected in human CEMx174 5.25M7 cells assessed as reduction in p24 antigen level measured after 4 days by ELISA; assay type: functional, organism-based; settings: Human immunodeficiency virus 1, clinical isolate R5-91US-4, CEMx174 5.25M7, 96 h
[3] = test system: Human immunodeficiency virus 1; test: Antiviral activity against HIV-1 clinical isolate R5-J32228M4 infected in human CEMx174 5.25M7 cells assessed as reduction in p24 antigen level measured after 4 days by ELISA; assay type: functional, organism-based; settings: Human immunodeficiency virus 1, clinical isolate R5-J32228M4, CEMx174 5.25M7, 96 h
[4] = test system: Human immunodeficiency virus 1; test: Antiviral activity against HIV-1 clinical isolate X4-92UG024 infected in human CEMx174 5.25M7 cells assessed as reduction in p24 antigen level measured after 4 days by ELISA; assay type: functional, organism-based; settings: Human immunodeficiency virus 1, clinical isolate X4-92UG024, CEMx174 5.25M7, 96 h
[5] = test system: Human immunodeficiency virus 1; test: Antiviral activity against HIV-1 clinical isolate X4-89BZ167 infected in human CEMx174 5.25M7 cells assessed as reduction in p24 antigen level measured after 4 days by ELISA; assay type: functional, organism-based; settings: Human immunodeficiency virus 1, clinical isolate X4-89BZ167, CEMx174 5.25M7, 96 h
[6] = test system: Human immunodeficiency virus 1; test: Antiviral activity against HIV-1 clinical isolate 97 TH-NP1525 infected in human CEMx174 5.25M7 cells assessed as reduction in p24 antigen level measured after 4 days by ELISA; assay type: functional, organism-based; settings: Human immunodeficiency virus 1, clinical isolate 97 TH-NP1525, CEMx174 5.25M7, 96 h
[7] = molecular target: Envelope glycoprotein gp160 (Human immunodeficiency virus 1) (UniProt Q72502); test: Binding affinity to HIV1 GP41 using GP41 NHR derived N39 peptide assessed as melting temperature incubated for 30 mins by circular dichroism spectroscopy
[8] = molecular target: Envelope glycoprotein gp160 (Human immunodeficiency virus 1) (UniProt Q72502); test: Binding affinity to HIV1 GP41 using GP41 NHR derived N39 peptide at 100 uM incubated for 30 mins by PAGE gel electrophoresis analysis
[9] = molecular target: Envelope glycoprotein gp160 (Human immunodeficiency virus 1) (UniProt Q72502); test: Binding affinity to HIV1 GP41 using GP41 NHR derived N39 peptide assessed as binding constant by isothermal titration calorimetry
[10] = molecular target: Envelope glycoprotein gp160 (Human immunodeficiency virus 1) (UniProt Q72502); test: Binding affinity to HIV1 GP41 using GP41 NHR derived N39 peptide assessed as change in enthalpy by isothermal titration calorimetry
[11] = molecular target: Envelope glycoprotein gp160 (Human immunodeficiency virus 1) (UniProt Q72502); test: Binding affinity to HIV1 GP41 using GP41 NHR derived N39 peptide assessed as change in entropy by isothermal titration calorimetry
[12] = molecular target: C-C chemokine receptor type 5 (Homo sapiens, UniProt P51681); test: Antagonist activity at CCR5 (unknown origin) expressed in HEK293 cells co-expressing Galpha16 assessed as intracellular calcium change incubated for 60 mins by Fluo-4 AM calcium flux based FLIPR assay; assay type: functional, cell-based
C-C chemokine receptor type 5, sequence (P51681 whole entry): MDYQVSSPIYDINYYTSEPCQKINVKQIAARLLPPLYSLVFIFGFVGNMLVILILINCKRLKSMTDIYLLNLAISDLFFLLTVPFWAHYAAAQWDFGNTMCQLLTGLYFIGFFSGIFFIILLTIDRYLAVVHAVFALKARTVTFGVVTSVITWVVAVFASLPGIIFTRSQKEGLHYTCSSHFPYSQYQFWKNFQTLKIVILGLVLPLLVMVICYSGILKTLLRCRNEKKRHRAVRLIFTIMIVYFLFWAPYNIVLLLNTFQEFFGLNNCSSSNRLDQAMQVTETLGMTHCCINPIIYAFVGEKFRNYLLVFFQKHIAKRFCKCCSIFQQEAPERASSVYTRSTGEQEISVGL

[13] = Proteolytic stability in rat liver assessed as parent compound remaining incubated for 4 hrs by RP-UHPLC analysis; assay type: ADME, tissue-based; settings: read-out: Stability
[14] = Proteolytic stability in rat kidney incubated upto 240 mins by RP-UHPLC analysis; assay type: ADME, tissue-based; settings: 4 h
[15] = Proteolytic stability in rat plasma assessed as parent compound remaining incubated for 4 hrs by RP-UHPLC analysis; assay type: ADME, cell-free; settings: read-out: Stability

Row | SMILES | EC50 [1] [nM] | EC50 [2] [nM] | EC50 [3] [nM] | EC50 [4] [nM] | EC50 [5] [nM] | EC50 [6] [nM] | Tm [7] [°C] | Activity [8] | K [9] | deltaH [10] | deltaS [11] [cal/mol/deg] | IC50 [12] [nM] | remaining at 4 h [13] [%] | Stability [14] | remaining at 4 h [15] [%]
1 | CC[C@H](C)[C@H](NC(C)=O)C(=O)N[C@@H](CCC(=O)O)C(=O)N[C@@H](CCC(=O)O)C(=O)N[C@@H](CC(C)C)C(=O)N[C@H](C(=O)N[C@@H](CCCNC(=N)N)C(=O)N[C@@H](C)C(=O)N[C@@H](C)C(=O)N[C@@H](CCC(N)=O)C(=O)N[C@@H](CCC(=O)O)C(=O)N[C@@H](CCC(N)=O)C(=O)N[C@@H](CCC(N)=O)C(=O)N[C@@H](CCCNC(=N)N)C(=O)N[C@@H](CCCCN)C(=O)N[C@@H](CC(N)=O)C(=O)N[C@@H](CCC(=O)O)C(=O)N[C@@H](CCC(=O)O)C(=O)N[C@@H](C)C(=O)N[C@@H](CC(C)C)C(=O)N[C@@H](CCCNC(=N)N)C(=O)N[C@@H](CCC(=O)O)C(=O)N[C@@H](CC(C)C)C(=O)N[C@@H](CCCCNC(=O)CCOCCOCCOCCOCCOCCOCCOCCOCCOCCOCCOCCOCCNC(=O)c1ccc(CC2CCN(CCCN(C(=O)C3CCN(C(C)=O)CC3)c3ccc(C)c(Cl)c3)CC2)cc1)C(N)=O)[C@@H](C)CC (Ac-IEELIRAAQEQQRKNEEALRELK([PEG12-X1])-NH2) | 0.09 | 1.79 | 16.2 | 1.21 | 2.75 | 0.33 | 56 | Active | 2.1 10^5/M | -1.4 10^4cal/mol | -23.2 | 19.2 | > 72 | Stable | 100
2 | CC[C@H](C)[C@H](NC(C)=O)C(=O)N[C@@H](CCC(=O)O)C(=O)N[C@@H](CCC(=O)O)C(=O)N[C@@H](CC(C)C)C(=O)N[C@H](C(=O)N[C@@H](CCCNC(=N)N)C(=O)N[C@@H](C)C(=O)N[C@@H](C)C(=O)N[C@@H](CCC(N)=O)C(=O)N[C@@H](CCC(=O)O)C(=O)N[C@@H](CCC(N)=O)C(=O)N[C@@H](CCC(N)=O)C(=O)N[C@@H](CCCNC(=N)N)C(=O)N[C@@H](CCCCN)C(=O)N[C@@H](CC(N)=O)C(=O)N[C@@H](CCC(=O)O)C(=O)N[C@@H](CCC(=O)O)C(=O)N[C@@H](C)C(=O)N[C@@H](CC(C)C)C(=O)N[C@@H](CCCNC(=N)N)C(=O)N[C@@H](CCC(=O)O)C(=O)N[C@@H](CC(C)C)C(=O)N[C@@H](CCCCNC(=O)CCOCCOCCOCCOCCOCCOCCOCCOCCOCCOCCOCCOCCNC(=O)c1ccc(S(=O)(=O)NC2CC3CCC(C2)N3CCCN(C(=O)C2CCN(C(C)=O)CC2)c2ccc(C)c(Cl)c2)cc1)C(N)=O)[C@@H](C)CC (some centres undefined) (Ac-IEELIRAAQEQQRKNEEALRELK([PEG12-X2])-NH2) | 0.16 | 1.01 | 14.8 | 1.24 | 2.97 | 0.99 | 56 | Active | 1.97 10^5/M | -1.5 10^4cal/mol | -27.3 | 10.3 | > 72 | Stable | –
